Measured values from ChEMBL document CHEMBL1134711, “Pharmacophore-based discovery of 3,4-disubstituted pyrrolidines as a novel class of monoamine transporter inhibitors” (Bioorg Med Chem Lett, 2001).

What was measured:
[1] = molecular target: T1, Sodium-dependent dopamine transporter (Rattus norvegicus, UniProt P23977); assay: Inhibition of [3H]DA uptake at Dopamine transporter in rat cortex.
[2] = molecular target: Norepinephrine transporter (Rattus norvegicus, UniProt Q9WTR4); assay: Inhibition of [3H]NE uptake at Norepinephrine transporter in rat parietal/occipital cortex was determined
Chain of Norepinephrine transporter (Q9WTR4 whole entry): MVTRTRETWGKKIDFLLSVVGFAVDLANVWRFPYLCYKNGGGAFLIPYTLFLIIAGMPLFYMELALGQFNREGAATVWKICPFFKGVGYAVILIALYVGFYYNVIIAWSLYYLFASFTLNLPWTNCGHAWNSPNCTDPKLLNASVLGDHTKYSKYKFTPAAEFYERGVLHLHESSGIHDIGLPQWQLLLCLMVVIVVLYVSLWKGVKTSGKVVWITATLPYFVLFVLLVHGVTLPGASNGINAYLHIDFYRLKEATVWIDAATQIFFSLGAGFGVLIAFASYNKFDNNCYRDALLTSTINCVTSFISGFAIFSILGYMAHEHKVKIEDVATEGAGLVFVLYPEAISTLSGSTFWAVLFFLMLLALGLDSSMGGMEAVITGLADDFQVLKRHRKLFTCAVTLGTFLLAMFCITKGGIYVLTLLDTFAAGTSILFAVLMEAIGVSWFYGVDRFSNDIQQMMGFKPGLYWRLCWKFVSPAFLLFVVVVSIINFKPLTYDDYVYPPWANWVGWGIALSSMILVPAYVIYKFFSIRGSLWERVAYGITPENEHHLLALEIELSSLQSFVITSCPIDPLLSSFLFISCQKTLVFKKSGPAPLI

[3] = molecular target: Sodium-dependent serotonin transporter (Rattus norvegicus, UniProt P31652); assay: Inhibition of [3H]5-HT uptake at Serotonin transporter in rat mid brain
Chain of Sodium-dependent serotonin transporter (P31652 whole entry): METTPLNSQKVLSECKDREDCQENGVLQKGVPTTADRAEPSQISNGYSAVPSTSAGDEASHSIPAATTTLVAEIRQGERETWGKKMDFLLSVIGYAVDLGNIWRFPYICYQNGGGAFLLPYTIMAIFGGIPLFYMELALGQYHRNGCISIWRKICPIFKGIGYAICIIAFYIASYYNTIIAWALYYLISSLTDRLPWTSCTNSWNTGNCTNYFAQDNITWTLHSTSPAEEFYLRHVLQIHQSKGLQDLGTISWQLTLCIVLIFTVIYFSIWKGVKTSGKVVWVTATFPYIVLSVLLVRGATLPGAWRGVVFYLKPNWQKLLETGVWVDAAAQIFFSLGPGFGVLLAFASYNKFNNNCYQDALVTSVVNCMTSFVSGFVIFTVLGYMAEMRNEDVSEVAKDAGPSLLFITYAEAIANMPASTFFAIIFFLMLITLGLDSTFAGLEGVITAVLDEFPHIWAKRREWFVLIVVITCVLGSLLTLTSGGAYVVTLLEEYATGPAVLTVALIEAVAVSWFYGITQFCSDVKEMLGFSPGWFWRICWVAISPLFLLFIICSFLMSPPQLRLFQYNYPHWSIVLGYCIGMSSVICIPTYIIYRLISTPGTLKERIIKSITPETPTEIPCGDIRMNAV

[4] = In vitro Ki against [3H]mazindol binding.
[5] = molecular target: T1, Sodium-dependent dopamine transporter; assay: Functional cocaine antagonism was evaluated by inhibition of [3H]dopamine reuptake
[6] = molecular target: T1, Sodium-dependent dopamine transporter; assay: Functional cocaine antagonism was evaluated by inhibition of [3H]dopamine reuptake at a concentration of 100 nM with cocaine
[7] = molecular target: T1, Sodium-dependent dopamine transporter; assay: Functional cocaine antagonism was evaluated by inhibition of [3H]dopamine reuptake at a concentration of 30 nM with cocaine
[8] = molecular target: T1, Sodium-dependent dopamine transporter; assay: Functional cocaine antagonism was evaluated by inhibition of [3H]dopamine reuptake at a concentration of 300 nM with cocaine

T1 sequence (P23977 whole entry): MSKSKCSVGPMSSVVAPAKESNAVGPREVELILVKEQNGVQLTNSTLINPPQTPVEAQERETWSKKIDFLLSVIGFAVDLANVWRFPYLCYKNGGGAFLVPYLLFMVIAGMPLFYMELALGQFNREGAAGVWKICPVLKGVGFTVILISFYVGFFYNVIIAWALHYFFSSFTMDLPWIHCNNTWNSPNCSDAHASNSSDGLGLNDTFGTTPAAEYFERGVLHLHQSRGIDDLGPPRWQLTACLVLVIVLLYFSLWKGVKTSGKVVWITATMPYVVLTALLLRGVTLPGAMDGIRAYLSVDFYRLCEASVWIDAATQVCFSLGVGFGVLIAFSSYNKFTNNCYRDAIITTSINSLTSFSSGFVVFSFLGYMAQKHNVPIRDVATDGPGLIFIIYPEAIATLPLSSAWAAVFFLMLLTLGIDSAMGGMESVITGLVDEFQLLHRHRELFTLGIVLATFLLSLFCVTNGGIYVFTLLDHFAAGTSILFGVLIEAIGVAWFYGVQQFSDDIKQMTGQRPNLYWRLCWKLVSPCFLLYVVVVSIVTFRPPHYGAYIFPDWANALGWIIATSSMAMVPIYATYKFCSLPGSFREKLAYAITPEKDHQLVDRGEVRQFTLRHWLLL

Row | Compound | Ki [1] [nM] | Ki [2] [nM] | Ki [3] [nM] | Ki [4] [nM] | other results
1 | CN1C[C@@H](C(=O)c2ccccc2)[C@H](c2ccccc2)C1 | 1410 | 150 | 750 | 1180 | 
2 | COc1ccc(C(=O)[C@@H]2CN(C)C[C@H]2c2ccc(Cl)cc2)cc1 | 1160 |  |  |  | 
3 | CN1C[C@@H](C(=O)c2cccs2)[C@H](c2ccc(Cl)cc2)C1 | 200 | 31 | 230 | 84 | IC50 [5]: 308 nM; IC50 [6]: 641 nM; IC50 [7]: 46 nM
4 | CN1C[C@@H](C(=O)c2ccc(Cl)cc2)[C@H](c2ccccc2)C1 | 1220 | 430 | 520 | 1250 | 
5 | CN1C[C@@H](C(=O)c2ccc(Cl)cc2)[C@H](c2ccccc2F)C1 | 1280 |  |  |  | 
6 | CN1C[C@@H](C(=O)c2cccc(C(F)(F)F)c2)[C@H](c2ccc(Cl)cc2)C1 | 3170 |  |  |  | 
7 | Cc1ccc([C@@H]2CN(c3ccccc3)C[C@H]2C(=O)c2ccc(F)cc2)cc1 | > 10000 |  |  |  | 
8 | CN1C[C@@H](C(=O)c2ccccn2)[C@H](c2ccccc2)C1 | 630 |  | 830 | 510 | IC50 [5]: 663 nM; IC50 [6]: 494 nM; IC50 [8]: 645 nM
9 | CN1C[C@@H](C(=O)c2ccc(F)cc2)[C@H](c2ccc(F)cc2)C1 | 3960 | 800 | 380 |  | 
10 | O=C(c1cccs1)[C@@H]1CN(c2ccccc2)C[C@H]1c1ccccc1 | > 10000 | > 10000 | > 10000 | > 10000 | 
11 | O=C(c1ccccn1)[C@@H]1CN(c2ccccc2)C[C@H]1c1ccccc1 | > 10000 | > 10000 | > 10000 | > 10000 | 
12 | CN1C[C@@H](C(=O)c2ccccc2Cl)[C@H](c2ccc(Cl)cc2)C1 | 610 | 69 | 540 | 340 | 
13 | CN1C[C@@H](C(=O)c2ccc(Cl)cc2)[C@H](c2ccc(Cl)cc2Cl)C1 | 1260 |  |  |  | 
14 | Cc1ccc([C@@H]2CN(C)C[C@H]2C(=O)c2ccccc2F)cc1 | 1930 |  |  |  | 
15 | O=C(c1ccccc1)[C@@H]1CN(c2ccccc2)C[C@H]1c1ccc(Cl)cc1 | > 10000 |  |  |  | 
16 | COC(=O)[C@@H]1C2CC[C@@H](C[C@@H]1OC(=O)c1ccccc1)N2C (single isomer, unassigned) [COCAINE] |  |  |  | 230 | 
17 | COc1ccccc1C(=O)[C@@H]1CN(c2ccccc2)C[C@H]1c1ccc(Cl)cc1 | > 10000 |  |  |  | 
